Paper PMC8989888, “Development of optimized drug-like small molecule inhibitors of the SARS-CoV-2 3CL protease for treatment of COVID-19” (Nature Communications, 2022)
Like-named read-outs stand apart in the source and are kept apart here.

Molecular target: SARS-CoV-2 3CL protease (Severe acute respiratory syndrome coronavirus 2, UniProt P0DTD1)
Assay type: biochemical
Design: Avg: unit not given here
Settings: for Inhibition at 10 µM: 10 µM compound; for Inhibition at 100 µM: 100 µM compound; for IC50 / LogIC50: Figure S1 and S2
[1] = Conc 10 µM, mean response (inhibition) of dose-response curve
[2] = Conc 15 µM, mean response (inhibition) of dose-response curve
[3] = Conc 20 µM, mean response (inhibition) of dose-response curve
[4] = Conc 50 µM, mean response (inhibition) of dose-response curve
[5] = Conc 100 µM, mean response (inhibition) of dose-response curve
[6] = Conc 200 µM, mean response (inhibition) of dose-response curve
[7] = dose-response curve of fragment hit
[8] = log of IC50 (µM), dose-response curve fit
[9] = Conc 10 µM, average response of dose-response curve
[10] = Conc 15 µM, average response of dose-response curve
[11] = Conc 20 µM, average response of dose-response curve
[12] = Conc 50 µM, average response of dose-response curve
[13] = Conc 100 µM, average response of dose-response curve
[14] = Conc 200 µM, average response of dose-response curve
[15] = dose-response retest of fragment hits

## Cc1cc(C(=O)CCl)c(C)n1-c1nccs1 [Z56979277]
  Inhibition at 10 µM: 64%
  Inhibition at 100 µM: 100%
[1]
  Avg: 63.6
[2]
  Avg: 80.9
[3]
  Avg: 90.9
[4]
  Avg: 95.6
[5]
  Avg: 101.9
[6]
  Avg: 108.5

## Cc1cc(C(=O)CCl)c(C)n1-c1ncn[nH]1 [Z57014347]
  Inhibition at 10 µM: 35%
  Inhibition at 100 µM: 100%
[1]
  Avg: 35.1
[2]
  Avg: 51.1
[3]
  Avg: 60.8
[4]
  Avg: 75.5
[5]
  Avg: 101.2
[6]
  Avg: 107.2
[7]
  IC50: 15.4 µM
log10 of IC50 in µM
  LogIC50: 1.188

## CN(c1ccc(C(=O)CCl)cc1)S(C)(=O)=O [Z57982062]
  Inhibition at 10 µM: 47%
  Inhibition at 100 µM: 94%
[1]
  Avg: 47.1
[2]
  Avg: 48.1
[3]
  Avg: 62
[4]
  Avg: 79.8
[5]
  Avg: 93.6
[6]
  Avg: 99.3
[7]
  IC50: 13.5 µM
log10 of IC50 in µM
  LogIC50: 1.131

## CCN(c1ccc(C(=O)CCl)cc1)S(C)(=O)=O [Z85932823]
  Inhibition at 10 µM: 25%
  Inhibition at 100 µM: 84%
[1]
  Avg: 25.1
[2]
  Avg: 25.8
[3]
  Avg: 34.6
[4]
  Avg: 58.2
[5]
  Avg: 84.1
[6]
  Avg: 87.1
[7]
  IC50: 39.7 µM
log10 of IC50 in µM
  LogIC50: 1.598

## CC1C(=O)Nc2ccc(C(=O)CCl)cc21 (centres unmarked) [Z94598687]
  Inhibition at 10 µM: 3%
  Inhibition at 100 µM: 85%
[1]
  Avg: 3
[2]
  Avg: 12.3
[3]
  Avg: 39.4
[4]
  Avg: 61.2
[5]
  Avg: 84.9
[6]
  Avg: 105.3
[7]
  IC50: 33.9 µM
log10 of IC50 in µM
  LogIC50: 1.53

## O=C(CCl)NC(=O)OCc1ccccc1 [Z108566700]
  Inhibition at 10 µM: 22%
  Inhibition at 100 µM: 100%
Conc 10 µM
  Avg: 22.2
Conc 15 µM
  Avg: 41.7
Conc 20 µM
  Avg: 51.1
Conc 50 µM
  Avg: 86.4
Conc 100 µM
  Avg: 100.3
Conc 200 µM
  Avg: 108.1
dose-response curve fit
  IC50: 19 µM
[8]
  LogIC50: 1.279

## Cc1cc(C(=O)CCl)c(C)n1-c1ccccn1 [Z126674012]
  Inhibition at 10 µM: 36%
  Inhibition at 100 µM: 91%
Conc 10 µM
  Avg: 35.8
Conc 15 µM
  Avg: 45.3
Conc 20 µM
  Avg: 61.2
Conc 50 µM
  Avg: 80.4
Conc 100 µM
  Avg: 91.2
Conc 200 µM
  Avg: 99.9
dose-response curve fit
  IC50: 15.8 µM
[8]
  LogIC50: 1.197

## O=C(CCl)N1CCN(Cc2cccs2)CC1 [Z166605372]
  Inhibition at 10 µM: 3%
  Inhibition at 100 µM: 70%
[9]
  Avg: 3.4
[10]
  Avg: 11.2
[11]
  Avg: 27.4
[12]
  Avg: 53.6
[13]
  Avg: 69.5
[14]
  Avg: 93
[15]
  IC50: 47.5 µM
Log of IC50 in µM
  LogIC50: 1.677

## Cc1ccccc1CN1CCN(C(=O)CCl)CC1 [Z208155076]
  Inhibition at 10 µM: 18%
  Inhibition at 100 µM: 85%
[9]
  Avg: 18.2
[10]
  Avg: 5.8
[11]
  Avg: 36.6
[12]
  Avg: 64.8
[13]
  Avg: 84.6
[14]
  Avg: 98.1
[15]
  IC50: 35.8 µM
Log of IC50 in µM
  LogIC50: 1.554

## O=C(CCl)c1ccc(N2CCCC2=O)cc1 [Z221603842]
  Inhibition at 10 µM: 47%
  Inhibition at 100 µM: 87%
[9]
  Avg: 46.5
[10]
  Avg: 48.2
[11]
  Avg: 62.2
[12]
  Avg: 77.1
[13]
  Avg: 86.9
[14]
  Avg: 83.1
[15]
  IC50: 14 µM
Log of IC50 in µM
  LogIC50: 1.147

## NS(=O)(=O)c1ccc(S)nc1 [Z235344787]
  Inhibition at 10 µM: 6%
  Inhibition at 100 µM: 100%
[9]
  Avg: 5.7
[10]
  Avg: 20.7
[11]
  Avg: 38.6
[12]
  Avg: 106.4
[13]
  Avg: 110.1
[14]
  Avg: 111.3
[15]
  IC50: 22.3 µM
Log of IC50 in µM
  LogIC50: 1.348

## O=C(NCCc1ccc(F)cc1)n1ccnc1 [Z235353843]
  Inhibition at 10 µM: 30%
  Inhibition at 100 µM: 96%
[9]
  Avg: 29.9
[10]
  Avg: 15.5
[11]
  Avg: 42.1
[12]
  Avg: 82.2
[13]
  Avg: 95.9
[14]
  Avg: 102.1
[15]
  IC50: 27.6 µM
Log of IC50 in µM
  LogIC50: 1.441

## O=C(c1ccc(S)nc1)N1CCCC1 [Z235362941]
  Inhibition at 10 µM: 0%
  Inhibition at 100 µM: 100%
[9]
  Avg: 0.4
[10]
  Avg: 23.9
[11]
  Avg: 31.4
[12]
  Avg: 102.7
[13]
  Avg: 108.6
[14]
  Avg: 116.6
[15]
  IC50: 23.9 µM
Log of IC50 in µM
  LogIC50: 1.378

## Cc1ccc(CNC(=O)n2ccnc2)cc1 [Z295462498]
  Inhibition at 10 µM: 21%
  Inhibition at 100 µM: 100%
[1]
  Avg: 21
[2]
  Avg: 37.9
[3]
  Avg: 33.6
[4]
  Avg: 84.1
[5]
  Avg: 101.3
[6]
  Avg: 104
[7]
  IC50: 26.7 µM
log10 of IC50 in µM
  LogIC50: 1.426

## N#Cc1ccc(S)nc1 [Z367678594]
  Inhibition at 10 µM: 16%
  Inhibition at 100 µM: 100%
[1]
  Avg: 16.1
[2]
  Avg: 29.5
[3]
  Avg: 30.5
[4]
  Avg: 107.9
[5]
  Avg: 110.6
[6]
  Avg: 113.2
[7]
  IC50: 25 µM
log10 of IC50 in µM
  LogIC50: 1.398

## O=C(CCl)N1CCc2[nH]c3ccccc3c2C1 [Z398556976]
  Inhibition at 10 µM: 43%
  Inhibition at 100 µM: 100%
[1]
  Avg: 42.8
[2]
  Avg: 70.8
[3]
  Avg: 74.6
[4]
  Avg: 93.9
[5]
  Avg: 100.2
[6]
  Avg: 98.1
[7]
  IC50: 11 µM
log10 of IC50 in µM
  LogIC50: 1.042

## CSc1cc(C(=O)CCl)ccc1NC(C)=O [Z449369022]
  Inhibition at 100 µM: 95%
[1]
  Avg: 12.5
[2]
  Avg: 32
[3]
  Avg: 31
[4]
  Avg: 67.6
[5]
  Avg: 95.3
[6]
  Avg: 107.3
[7]
  IC50: 31 µM
log10 of IC50 in µM
  LogIC50: 1.491

## NC(=O)c1csc(C(=O)CCl)c1 [Z802671642]
  Inhibition at 10 µM: 16%
  Inhibition at 100 µM: 80%
[1]
  Avg: 15.9
[2]
  Avg: 29.5
[3]
  Avg: 35.2
[4]
  Avg: 47.6
[5]
  Avg: 80.1
[6]
  Avg: 92.5
[7]
  IC50: 42.6 µM
log10 of IC50 in µM
  LogIC50: 1.6293

## NC(=O)CCc1ccc(C(=O)CCl)cc1 [Z1203664423]
  Inhibition at 10 µM: 22%
  Inhibition at 100 µM: 88%
Conc 10 µM
  Avg: 21.6
Conc 15 µM
  Avg: 41.7
Conc 20 µM
  Avg: 49.5
Conc 50 µM
  Avg: 69.9
Conc 100 µM
  Avg: 88.3
Conc 200 µM
  Avg: 103.3
dose-response curve fit
  IC50: 22 µM
[8]
  LogIC50: 1.341

## O=C(NCC1CCCCC1O)c1cccnc1S (centres unmarked) [Z1252265470]
  Inhibition at 10 µM: 0%
  Inhibition at 100 µM: 100%
Conc 10 µM
  Avg: -0.7
Conc 15 µM
  Avg: 22.4
Conc 20 µM
  Avg: 33.5
Conc 50 µM
  Avg: 82
Conc 100 µM
  Avg: 99.6
Conc 200 µM
  Avg: 99.1
dose-response curve fit
  IC50: 25.5 µM
[8]
  LogIC50: 1.406
